Results from patent US20260272936A1, “TREATMENT OF CANCER WITH A PARG INHIBITOR” (858 Therapeutics, Inc., priority 2023, published 2026).

How the values were obtained:
Experiment in all cases: 6-day cell proliferation, nuclei count
Type in all cases: cell-based
NCI-H1792 cells = conditions: Homo sapiens
Source text: (§1) The FU-97 (Cat #JCRB1074) human gastric cancer cell line and the Kuramochi (Cat #JCRB0098) and RMUG-S(Cat #IFO50320) human ovarian cancer cell lines were obtained from the National Institutes of Biomedical Innovation, Health and Nutrition's Japanese Collection of Research Bioresources (JCRB) (Ibaraki City, Osaka, Japan). The HCC1419 (Cat #CRL-2326) and HCC1428 (Cat #CRL-2327) human breast cancer cell lines and the NCI-H1650 (Cat #CRL-5883) and NCI-H1792 (Cat #CRL-5895) non-small cell lung cancer cell lines were obtained from ATCC (Manassas, Virginia, USA). The human gastric cancer cell lines GCIY (Cat #RCB0555) and SNU601 (Cat #CSC-C9686L) were obtained from the Riken Bioresource Research Center (Tsukuba, Ibaraki, Japan) and Creative Bioarray (Shirley, NY, USA), respectively. The T025OV ovarian cancer organoid model was developed from a patient-derived xenograft (PDX) model, which was developed from primary serous ovarian carcinoma cells obtained from Discovery Life Sciences (Huntsville, AL, USA, SN #350627149). T026OV organoids were developed from PDX cells obtained from The Jackson Laboratory (Bar Harbor, ME, USA, Cat #TM00335).
(§2) All cell lines were grown in an incubator at 37° C. in 5% CO2. The Kuramochi and SNU-601 cells were cultured in RPMI+glutaMAX™ (Thermo Fisher Scientific, Waltham, MA, USA Cat #74200120) containing 1% penicillin/streptomycin (pen/strep) (Thermo Fisher Scientific Cat #15070-063), and 10% fetal bovine serum (FBS) (Thermo Fisher Scientific Cat #A31605-02). The HCC1419, HCC1428, NCI-H1650, and NCI-H1792 cells were cultured in ATCC-modified RPMI+glutaMAX™ (Thermo Fisher Scientific Cat #A10491-01) containing 1% pen/strep and 10% FBS. The FU-97 cells were cultured in DMEM+glutaMAX™ (Thermo Fisher Scientific, Waltham, MA, USA Cat #10566-016) containing 1% pen/strep, 10% FBS and 0.01 mg/mL bovine insulin (MilliporeSigma, Burlington, MA, USA Cat #10516-5ML). The GCIY cells were cultured in MEM (Thermo Fisher Scientific Cat #11095-080) containing 1% pen/strep and 15% FBS. The RMUG-S cells were cultured in Ham's F12 medium+glutaMAX™ (Thermo Fisher Scientific Cat #31765-035) containing 10% FBS and 1% pen/strep.
(§3) Compound 1 IC50 values for inhibition of cell proliferation were determined by imaging and counting the number of nuclei after compound treatment. Cells were harvested with trypsin (Thermo Fisher Scientific, Cat #25200-056) and plated in black-walled, clear bottom 96-well Corning costar 3603 plates (VWR, Radnor, PA, USA Cat #29444-008) at 7500 cells/well (HCC1428 and HCC1419), 5000 cells/well (Kuramochi, FU-97, SNU-601), 2500 cells/well (RMUG-S, GCIY, NCI-H1650) or 1000 cells/well (NCI-H1792) in 100 μL normal growth media and incubated overnight at 37° C., 5% CO2. The following day, a 1000× Compound 1 concentration curve was prepared by serial dilution of Compound 1 in 100% DMSO. The 1000× Compound 1 concentration curve was diluted 1:200 into growth media to generate a 5× concentration curve in 0.5% DMSO/growth medium before addition of 25 μL of the 5× compound to the wells. Control wells received 25 μL of 0.5% DMSO/media alone (negative control wells) or 50 μM Compound 1 (positive controls; 10 μM Compound 1 final). The plate was mixed gently on a plate shaker, covered with Breathe-Easy biofilm (Diversified Biotech, Cat #BEM-1), and incubated at 37° C., 5% CO2 for 6 days. Following the incubation period, a 125 μL fixation/permeabilization solution containing 8% paraformaldehyde (Fisher Scientific, Cat #50-980-495, part of Thermo Fisher Scientific) and 0.2% Triton X-100 (Thermo Fisher Scientific, Cat #327372500) in PBS was added to each well of the plate, and the plates were incubated at room temperature for 20 min. The solution was aspirated and cells washed by the addition of 100 μL PBS. After aspiration of the PBS, nuclei were stained by the addition of 100 μL 1 μg/mL DAPI (Thermo Fisher Cat #62248) in PBS. […]

HCC1419 cells = conditions: Homo sapiens
Source text: as §1, §2, §3

SNU-601 cells = conditions: Homo sapiens
Source text: as §1, §2, §3

FU-97 cells = conditions: Homo sapiens, Fu97, 144 h
Source text: as §1, §2, §3

NCI-H1650 cells = conditions: Homo sapiens
Source text: as §1, §2, §3

Kuramochi cells = conditions: Homo sapiens, 144 h
Source text: as §1, §2, §3

RMUG-S cells = conditions: Homo sapiens, 144 h
Source text: as §1, §2, §3

GCIY cells = conditions: Homo sapiens, 144 h
Source text: as §1, §2, §3

HCC1428 cells = conditions: Homo sapiens
Source text: as §1, §2, §3

[1] = read-out: IC50 inhibition of proliferation

[2H]C([2H])(c1cnn(C)c1)N1C(=O)c2cc(S(=O)(=O)NC3(C)CC3)ccc2N2C1=NC[C@H]2C [Compound 1, (R)-1-methyl-4-((1-methyl-1H-pyrazol-4-yl)methyl-d2)-N-(1-methylcyclopropyl)-5-oxo-1,2,4,5-tetrahydroimidazo[1,2-a]quinazoline-7-sulfonamide]
IC90 (NCI-H1792 cells; 144 h, NCI-H1792, 6 days, geometric mean, read-out: IC90 inhibition of proliferation): 4280 nM | IC50 (NCI-H1792 cells; NCI-H1792, 144 h, read-out: IC50 inhibition of proliferation): 1150 nM | IC90 (HCC1419 cells; 144 h, HCC1419, 6 days, geometric mean, read-out: IC90 inhibition of proliferation): 206 nM | IC50 (HCC1419 cells; HCC1419, 144 h, read-out: IC50 inhibition of proliferation): 50 nM | IC90 (SNU-601 cells; 144 h, SNU-601, 6 days, geometric mean, read-out: IC90 inhibition of proliferation): 539 nM | IC50 (SNU-601 cells; SNU-601, 144 h, read-out: IC50 inhibition of proliferation): 149 nM | IC50 (FU-97 cells; [1]): 178 nM | IC90 (FU-97 cells; FU-97, 6 days, geometric mean, read-out: IC90 inhibition of proliferation): 833 nM | IC90 (NCI-H1650 cells; 144 h, NCI-H1650, 6 days, geometric mean, read-out: IC90 inhibition of proliferation): 320 nM | IC50 (NCI-H1650 cells; NCI-H1650, 144 h, read-out: IC50 inhibition of proliferation): 100 nM | IC50 (Kuramochi cells; [1]): 46 nM | IC90 (Kuramochi cells; Kuramochi, 6 days, geometric mean, read-out: IC90 inhibition of proliferation): 133 nM | IC50 (RMUG-S cells; [1]): 75 nM | IC90 (RMUG-S cells; RMUG-S, 6 days, geometric mean, read-out: IC90 inhibition of proliferation): 208 nM | IC90 (GCIY cells; 6 days, geometric mean, read-out: IC90 inhibition of proliferation): 125 nM | IC50 (GCIY cells; [1]): 28 nM | IC90 (HCC1428 cells; 144 h, HCC1428, 6 days, geometric mean, read-out: IC90 inhibition of proliferation): 363 nM | IC50 (HCC1428 cells; HCC1428, 144 h, read-out: IC50 inhibition of proliferation): 131 nM
